Laboratory results as given in patent US11471509B2, “Compositions and methods relating to myomaker-induced muscle cell fusion” (The Board of Regents of the University of Texas System, priority 2013, dated 2022).
“Also recorded” adds a separate entry of the source.

How the values were obtained:
[1] = tested on: C2C12 myoblasts; assay: C2C12 myoblast fusion in the presence of actin inhibitors; assay type: cell-based; settings: C2C12 cells infected with GFP or Myomaker virus, Cytochalasin D 0.3 μM, lantrunculin B 0.1 μM
[2] = at 78 weeks, cited from earlier work
[3] = cited from earlier work
[4] = infantile-onset Pompe disease, compared to untreated historical control population

| Molecule | myoblast fusion [1] | myoblast fusion ([1]; listed as latrunculin B) | increase in percent predicted forced vital capacity ([2]; P=0.006 vs placebo) [%] | increase in distance walked in six minutes ([2]; average, every other week for 18 months, baseline approximately 325 meters, P=0.03 vs placebo) | overall survival [3, 4] | ventilator-free survival [3, 4] | side effects ([3]; intravenous infusion) |
| --- | --- | --- | --- | --- | --- | --- | --- |
| C=C1[C@@H](C)[C@H]2[C@H](Cc3ccccc3)NC(=O)[C@]23[C@H](OC(C)=O)/C=C/[C@@](C)(O)C(=O)[C@@H](C)C/C=C/[C@H]3[C@@H]1O [cytochalasin D] | completely blocked fusion; also recorded: abolished | – | – | – | – | – | – |
| C/C1=C/C(=O)O[C@@H]2C[C@@H](CC[C@H](C)/C=C\CC1)O[C@@](O)([C@@H]1CSC(=O)N1)C2 [lantrunculin B, latrunculin B] | completely blocked fusion | abolished | – | – | – | – | – |
| alglucosidase alfa [Myozyme] | – | – | 1.2 | approximately 25 meters | clearly prolongs | clearly prolongs | fever, flushing, skin rash, increased heart rate and even shock |
